From US12637717B2, “Method for treating and predicting prognosis of gastric cancer patient by calculating RNA expression with logistic regression” (National Yang Ming Chiao Tung University, priority 2022, dated 2026)

Legend:
Assay type in all cases: cell-based, human
Hs746T = test: cell viability of diffuse-type GC cell line Hs746T after inhibitor treatment; details: 2.5 μM, 5 μM and 10 μM, triplicate
Description: (§1) The potential tumor antigens (pTAs) expression and signaling pathways were validated in vitro. To validate the association of pTAs with the EMT-like subtype of gastric cancer, the pTAs expression at intestinal-type and diffuse-type GC cell lines were investigated by western blotting. The human GC cell line AGS was obtained from American Type Culture Collection (ATCC) CRL-1739™, and Hs746T was obtained from ATCC HTB-135™, and SNU-1 was obtained from ATCC CRL5971™. Hs746T and SNU-1 were diffuse-type GC cell lines; AGS was an intestinal type GC cell line.
(§2) Therefore, two inhibitors (SB431542 and GDC-0449 (Vismodegib)) were used to validate whether the TGF-β and hedgehog signaling pathways were activated in diffuse-type GC cell lines, respectively. The experiments were performed in triplicate.

AGS = test: cell viability of intestinal type GC cell line AGS after inhibitor treatment; details: for cell viability (inhibiting effect): 2.5 μM, 5 μM and 10 μM, triplicate
Description: as §1, §2

SNU-1 = test: cell viability of diffuse-type GC cell line SNU-1 after inhibitor treatment; details: 2.5 μM, 5 μM and 10 μM, triplicate
Description: as §1, §2

CS(=O)(=O)c1ccc(C(=O)Nc2ccc(Cl)c(-c3ccccn3)c2)c(Cl)c1 [GDC-0449, Vismodegib]
cell viability (Hs746T): significantly decreased
cell viability (inhibiting effect) (AGS): did not have significant effects of inhibiting
effect on proliferation (AGS; concentrations of 2.5 μM and 5 μM): effects of promoting proliferation
cell viability (SNU-1): significantly decreased

NC(=O)c1ccc(-c2nc(-c3ccc4c(c3)OCO4)c(-c3ccccn3)[nH]2)cc1 [SB431542]
cell viability (Hs746T): significantly decreased
cell viability (inhibiting effect) (AGS): did not have significant effects of inhibiting
cell viability (SNU-1): significantly decreased
